Laboratory results taken from US10874743B2, “IRAK degraders and uses thereof” (Kymera Therapeutics, Inc., priority 2017, dated 2020).

Target: T1, IRAK4 (Homo sapiens, UniProt Q9NWZ3)
T1 sequence (Q9NWZ3 1-460): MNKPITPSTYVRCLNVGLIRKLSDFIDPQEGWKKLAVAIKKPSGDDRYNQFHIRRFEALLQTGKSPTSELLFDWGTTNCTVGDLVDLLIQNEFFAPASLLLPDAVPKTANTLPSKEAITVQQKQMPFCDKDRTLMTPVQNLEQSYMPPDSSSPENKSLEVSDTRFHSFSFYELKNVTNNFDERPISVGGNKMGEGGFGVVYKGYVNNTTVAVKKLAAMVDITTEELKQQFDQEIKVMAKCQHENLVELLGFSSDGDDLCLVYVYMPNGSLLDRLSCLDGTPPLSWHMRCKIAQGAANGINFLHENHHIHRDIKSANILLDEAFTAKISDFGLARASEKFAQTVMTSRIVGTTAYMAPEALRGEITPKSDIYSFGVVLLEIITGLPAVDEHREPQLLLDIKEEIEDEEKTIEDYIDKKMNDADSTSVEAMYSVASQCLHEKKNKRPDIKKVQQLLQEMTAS
Test: THP-1 degradation assay (western blot, % IRAK4 degraded after 24 hours)
Format: cell-based
Parameters: endogenous in cells
Conditions: THP-1 cells
Description: Compounds were reconstituted in DMSO to make stock solutions at concentration of 60 mM. THP-1 and OCI-LY10 cells were maintained in RPMI-1640 medium containing 10% FBS, 0.5 μM 2-ME or 20% FBS, 55 μM 2-ME, and 1% L-Glutamine respectively.
Cells were seeded into 6-well plates with 5e6 cells per well. 200 μL of diluted compounds were added to cells to the final concentration of 0.003-10 μM. After 4 or 24 hour-incubation at 37° C., cells were collected into 2 mL Eppendorf tubes and centrifuged at 1,000 rpm for 5 min. The cell pellets were washed with 1×DPBS once and resuspended in 60 μL lysis buffer. The cells were lysed on ice for 10 min, then centrifuged at 14,000 rpm for 10 min at 4° C. and the supernatants were collected for western blots. For THP-1 cells, the lysis buffer contained 40 mM pH 7.4 HEPES, 140 mM NaCl, 2.5 mM EDTA, 1% NP-40, 0.1% SDS, and protease inhibitor cocktail (Roche, Cat. No. 05892791001). For OCI-LY10 cells, RIPAbuffer (Thermo Fisher, 89900) with Halt Protease and Phosphatase Inhibitor Cocktail (Thermo Fisher, 78446) was applied.
The protein concentration of cell lysates was quantified with Pierce™ BCA Protein Assay Kit (Pierce, 23227). Albumin standards at different concentrations were prepared, involving 2,000 ug/mL, 1,500 ug/mL, 1,000 ug/mL, 750 ug/mL, 500 ug/mL, 250 ug/mL, 125 ug/mL, and 25 ug/mL. BCA working reagents were prepared by mixing BCA reagent A with reagent B in 50:1 ratio. 200 μL of the BCA working reagents were added to 25 μL of BCA standard or cell lysates in microplate, and mixed thoroughly on a plate shaker for 30 seconds. After incubation at 37° C. for 30 min, the absorbance of samples at 562 nm were measured with EnVision Plate Reader.
Protein lysates were prepared in NuPAGE™ LDS sample buffer and NuPAGE™ sample reducing agent, and incubated at 95° C. for 5 min. For western blots, 20-25 μg of total proteins were resolved in 4-12% Bis-Tris gels (Introgen, WG1403A) or 10% Bis-Tris Midi gels (Invitrogen, WG1202BOX) running with 1×MOPS SDS running buffer (Invitrogen, NP0001) or 1×MES SDS running buffer (Invitrogen, NP0002). The proteins were transferred to low fluorescence PVDF membranes using the Trans-Blot Turbo Transfer System. Membranes were then blocked in Odyssey blocking buffer at RT for 1 h followed by primary incubation at 4° C. overnight. The primary antibodies were IRAK1 rabbit monoclonal antibody (CST, #4504S, 1:500), IRAK3 rabbit polyclonal antibody (CST, #4369, 1:500), IRAK4 rabbit polyclonal antibody (CST, #4363S, 1:1,000), MyD88 rabbit monoclonal antibody (Abcam, Ab133739, 1:2,000), j3-actin mouse monoclonal antibody (Sigma, A5441, 10,000), and Gapdh mouse monoclonal antibody (Millipore, MAB374, 1:5,000). Membranes were washed three times with 1×TBST, and then incubated with IR Dye 800 CW Goat anti-rabbit (Licor, #926-32211) and IR Dye 700 CW Goat anti-mouse (Licor, #926-68070) secondary antibodies in 1:10,000 dilution at RT for 1 h. The western blot images were obtained using Odyssey Imaging System.
THP-1 results at 24 hours. The letter codes indicate the percentage of IRAK4 degraded after 24 hours: A (>50% degradation), B (>20-50% degradation) and C (<20% degradation)

Structure (SMILES)	THP-1 24 h % IRAK4 Degradation
Cc1ncsc1-c1ccc(CNC(=O)C2C[C@@H](O)CN2C(=O)[C@@H](NC(=O)COCCOCCOC(C)C(F)CNC(=O)c2cnc(-n3ncc4cc(C#N)cnc43)cc2NC2CC2)C(C)(C)C)cc1 (stereo partly shown) [I-122]	C (<20% degradation)
Cc1ncsc1-c1ccc(CNC(=O)[C@@H]2C[C@@H](O)CN2C(=O)[C@H](NC(=O)CCCCCCCCCCCNC(=O)[C@H]2CC[C@H](NC(=O)c3cnc(Nc4ccc5cnccc5n4)cc3NC3CC3)CC2)C(C)(C)C)cc1 [I-12]	C (<20% degradation)
N#Cc1cnc(Nc2cc(NC3CC3)c(C(=O)NCC(F)COCCOCCOCCNc3cccc4c3C(=O)N(C3CCC(=O)NC3=O)C4=O)cn2)c(F)c1 (stereo not shown) [I-58]	C (<20% degradation)
COc1cc(Nc2nc(N[C@H]3CCCC[C@H]3N)n3ccnc3c2C(N)=O)cc(OC)c1OCCOCCOCCOCCNc1cccc2c1C(=O)N(C1CCC(=O)NC1=O)C2=O (stereo partly drawn) [I-200, 5-(((1S,2R)-2-aminocyclohexyl)amino)-7-((4-(2-(2-(2-(2-((2-(2,6-dioxopiperidin-3-yl)-1,3-dioxoisoindolin-4-yl)amino)ethoxy)ethoxy)ethoxy)ethoxy)-3,5-dimethoxyphenyl)amino)imidazo[1,2-c]pyrimidine-8-carboxamide]	C (<20% degradation)
Cc1ncsc1-c1ccc(CNC(=O)[C@@H]2C[C@@H](O)CN2C(=O)[C@@H](NC(=O)COCCOCCOCC(F)CNC(=O)c2cnc(Nc3ccc4cnccc4n3)cc2NC2CC2)C(C)(C)C)cc1 (stereo partly shown) [I-120]	C (<20% degradation)
CC(C)(OCC(=O)NCCOCCOCCNc1cccc2c1C(=O)N(C1CCC(=O)NC1=O)C2=O)C(F)CNC(=O)c1cnc(Nc2ccc3cnccc3n2)cc1NC1CC1 (stereo not shown) [I-55]	C (<20% degradation)
O=C(COc1cccc2c1C(=O)N(C1CCC(=O)NC1=O)C2=O)NCCCCCOCCCCCNC(=O)[C@H]1CC[C@H](NC(=O)c2cnc(Nc3ccc4cnccc4n3)cc2NC2CC2)CC1 (stereo partly shown) [I-3]	C (<20% degradation)
Cc1ncsc1-c1ccc(CNC(=O)[C@@H]2C[C@@H](O)CN2C(=O)[C@@H](NC(=O)COCCOCCn2ccc3c(Nc4nc(N[C@@H]5CCCC[C@@H]5N)cc5[nH]cnc(=O)c45)cccc32)C(C)(C)C)cc1 [I-189, (2S,4R)-1-[(2S)-2-[[2-[2-[2-[4-[[7-[[(1R,2S)-2-aminocyclohexyl]amino]-4-oxo-3H-pyrido[4,3-d]pyrimidin-5-yl]amino]indol-1-yl]ethoxy]ethoxy]acetyl]amino]-3,3-dimethyl-butanoyl]-4-hydroxy-N-[[4-(4-methylthiazol-5-yl)phenyl]methyl]pyrrolidine-2-carboxamide]	C (<20% degradation)
O=C(COc1cccc2c1C(=O)N(C1CCC(=O)NC1=O)C2=O)NCCCNC(=O)[C@H]1CC[C@H](NC(=O)c2cnc(Nc3ccc4cnccc4n3)cc2NC2CC2)CC1 (stereo partly shown) [I-7]	B (>20-50% degradation)
O=C1CCC(N2C(=O)c3cccc(NCCCOCCCNC(=O)[C@H]4CC[C@H](NC(=O)c5cnc(Nc6ccc7cnccc7n6)cc5NC5CC5)CC4)c3C2=O)C(=O)N1 (stereo partly drawn) [I-30, 6-((1,6-naphthyridin-2-yl)amino)-4-(cyclopropylamino)-N-((1R,4R)-4-((3-(3-((2-(2,6-dioxopiperidin-3-yl)-1,3-dioxoisoindolin-4-yl)amino)propoxy)propyl)carbamoyl)cyclohexyl)nicotinamide]	C (<20% degradation)
O=C1CCC(N2C(=O)c3cccc(NCCOCCNC(=O)[C@H]4CC[C@H](NC(=O)c5cnc(Nc6ccc7cnccc7n6)cc5NC5CC5)CC4)c3C2=O)C(=O)N1 (stereo partly shown) [I-25, 6-((1,6-naphthyridin-2-yl)amino)-4-(cyclopropylamino)-N-((1r,4r)-4-((2-(2-((2-(2,6-dioxopiperidin-3-yl)-1,3-dioxoisoindolin-4-yl)amino)ethoxy)ethyl)carbamoyl)cyclohexyl)nicotinamide]	B (>20-50% degradation)
O=C(COc1cccc2c1C(=O)N(C1CCC(=O)NC1=O)C2=O)NCCCCCOCCOCCOCCCCCNC(=O)[C@H]1CC[C@H](NC(=O)c2cnc(Nc3ccc4cnccc4n3)cc2NC2CC2)CC1 (stereo partly drawn) [I-1, 6-((1,6-naphthyridin-2-yl)amino)-4-(cyclopropylamino)-N-((1R,4R)-4-((1-((2-(2,6-dioxopiperidin-3-yl)-1,3-dioxoisoindolin-4-yl)oxy)-2-oxo-9,12,15-trioxa-3-azaicosan-20-yl)carbamoyl)cyclohexyl)nicotinamide]	B (>20-50% degradation)
COc1cc(Nc2nc(N[C@H]3CCCC[C@H]3N)n3ccnc3c2C(N)=O)cc(OC)c1OCCOCCOCCOCC(=O)N[C@H](C(=O)N1C[C@H](O)C[C@H]1C(=O)NCc1ccc(-c2scnc2C)cc1)C(C)(C)C [I-165]	C (<20% degradation)
O=C(COc1cccc2c1C(=O)N(C1CCC(=O)NC1=O)C2=O)NCCOCCNC(=O)[C@H]1CC[C@H](NC(=O)c2cnc(Nc3ccc4cnccc4n3)cc2NC2CC2)CC1 (stereo partly shown) [I-6]	B (>20-50% degradation)
O=C(COc1cccc2c1C(=O)N(C1CCC(=O)NC1=O)C2=O)NCCOCCOCCOCCOCC(F)CNC(=O)c1cnc(Nc2ccc3cnccc3n2)cc1NC1CC1 (stereo not shown) [I-98]	B (>20-50% degradation)
O=C(COc1cccc2c1C(=O)N(C1CCC(=O)NC1=O)C2=O)NCCCCCOCCOCCCCCNC(=O)[C@H]1CC[C@H](NC(=O)c2cnc(Nc3ccc4cnccc4n3)cc2NC2CC2)CC1 (stereo partly shown) [I-5]	B (>20-50% degradation)
O=C(COc1cccc2c1C(=O)N(C1CCC(=O)NC1=O)C2=O)NCCOCCOCCNC(=O)[C@H]1C[C@H](NC(=O)c2cnc(Nc3ccc4cnccc4n3)cc2NC2CC2)C1 (stereo partly shown) [I-16]	C (<20% degradation)
Cc1ncsc1-c1ccc(CNC(=O)[C@@H]2C[C@@H](O)CN2C(=O)[C@H](NC(=O)CCCCCCNC(=O)[C@H]2CC[C@H](NC(=O)c3cnc(Nc4ccc5cnccc5n4)cc3NC3CC3)CC2)C(C)(C)C)cc1 [I-10, 6-((1,6-naphthyridin-2-yl)amino)-4-(cyclopropylamino)-N-((1S,4r)-4-((7-(((S)-1-((2S,4R)-4-hydroxy-2-((4-(4-methylthiazol-5-yl)benzyl)carbamoyl)-pyrrolidin-1-yl)-3,3-dimethyl-1-oxobutan-2-yl)amino)-7-oxoheptyl)carbamoyl)cyclohexyl)-nicotinamide]	C (<20% degradation)
COc1cc(Nc2nc(N[C@H]3CCCC[C@H]3N)n3ccnc3c2C(N)=O)cc(OCCOCCOCCOCCOCCNc2cccc3c2C(=O)N(C2CCC(=O)NC2=O)C3=O)c1 (stereo partly shown) [I-199]	C (<20% degradation)
